Patent publication US20110020235A1, “MR METHODS OF GRADING A TUMOR USING AN IMAGING MEDIUM THAT COMPRISES HYPERPOLARISED 13C-PYRUVATE” (priority 2007, published 2011)

Test: T1 relaxation of 13C1-pyruvate in human full blood
Format: physicochemical
Conditions: human full blood at 37° C.

For CC(=O)C(=O)O [13C1-pyruvate], which T1 relaxation is on record?
The T1 relaxation was “about 42 s”.
